This passage reports IC50 results from patent US12421210B2, “Fused bicyclic heterocycles as therapeutic agents” (NEW YORK UNIVERSITY, priority 2018, dated 2025).

The term IC50 denotes the concentration that gives 50% inhibition.

The target in the first assay is human NAMPT enzyme (His-hNAMPT) (Homo sapiens (Human), UniProt P43490). Kind of assay: NAMPT enzymatic inhibition assay (fluorescence, NADH product). Conditions: [BPS]; read-out: NAMPT IC50 (μM) [BPS]. It counts as biochemical.
human NAMPT enzyme (His-hNAMPT), sequence (P43490 whole entry): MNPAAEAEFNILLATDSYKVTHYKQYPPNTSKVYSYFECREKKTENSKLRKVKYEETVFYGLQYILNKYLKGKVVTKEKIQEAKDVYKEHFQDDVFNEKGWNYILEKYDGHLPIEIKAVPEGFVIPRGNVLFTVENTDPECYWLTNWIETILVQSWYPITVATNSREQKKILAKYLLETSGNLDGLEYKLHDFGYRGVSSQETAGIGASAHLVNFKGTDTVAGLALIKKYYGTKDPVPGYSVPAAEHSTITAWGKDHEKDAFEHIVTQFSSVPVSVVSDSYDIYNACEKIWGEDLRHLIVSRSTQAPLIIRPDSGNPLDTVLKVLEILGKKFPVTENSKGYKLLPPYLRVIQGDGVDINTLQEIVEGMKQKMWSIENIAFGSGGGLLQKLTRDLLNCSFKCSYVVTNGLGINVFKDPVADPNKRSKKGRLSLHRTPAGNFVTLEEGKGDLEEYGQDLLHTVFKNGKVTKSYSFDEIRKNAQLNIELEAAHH
`COc1cccc(N2C[C@@H]3[C@@H](CCNC(=O)/C=C/c4cccnc4)[C@@H]3C2)c1` [Example 129, (E)-N-(2-((1R,5S,6s)-3-(3-methoxyphenyl)-3-azabicyclo[3.1.0]hexan-6-yl)ethyl)-3-(pyridin-3-yl)acrylamide]: the IC50 lay in the range of 0.01 to 0.49 µM.

For the molecule `COc1cccc(N2C[C@@H]3[C@@H](CCNC(=O)c4cc5ccncc5o4)[C@@H]3C2)c1` [Example 130, N-(2-((1R,5S,6s)-3-(3-methoxyphenyl)-3-azabicyclo[3.1.0]hexan-6-yl)ethyl)furo[2,3-c]pyridine-2-carboxamide], the IC50 lay in the range of 0.01 to 0.49 µM.

In the case of `O=C(NCC[C@@H]1[C@H]2CN(c3ncccn3)C[C@@H]12)c1cc(-c2cccnc2)on1` [Example 131, 5-(pyridin-3-yl)-N-(2-((1R,5S,6s)-3-(pyrimidin-2-yl)-3-azabicyclo[3.1.0]hexan-6-yl)ethyl)isoxazole-3-carboxamide], the IC50 was 0.01 to 0.49 µM.

Consider `Cc1ccccc1N1C[C@@H]2[C@@H](CCNC(=O)/C=C/c3cccnc3)[C@@H]2C1` [Example 132, (E)-3-(pyridin-3-yl)-N-(2-((1R,5S,6s)-3-(o-tolyl)-3-azabicyclo[3.1.0]hexan-6-yl)ethyl)acrylamide], for which the IC50 was in the range of 0.01 to 0.49 µM.

For `Cc1cccc(C)c1N1C[C@@H]2[C@@H](CCNC(=O)/C=C/c3cccnc3)[C@@H]2C1` [Example 133, (E)-N-(2-((1R,5S,6s)-3-(2,6-dimethylphenyl)-3-azabicyclo[3.1.0]hexan-6-yl)ethyl)-3-(pyridin-3-yl)acrylamide], the IC50 is 0.01 to 0.49 µM.

Staying with this assay, now noted: [HDB]; read-out: NAMPT IC50 (μM) [HDB].
`O=C(NCC[C@@H]1[C@H]2CN(c3ccccc3)C[C@@H]12)c1cc(-c2cccnc2)on1` [Example 134, N-(2-((1R,5S,6s)-3-phenyl-3-azabicyclo[3.1.0]hexan-6-yl)ethyl)-5-(pyridin-3-yl)isoxazole-3-carboxamide]: the IC50 is less than 0.01 µM.

For the molecule `N#Cc1ccccc1N1C[C@@H]2[C@@H](CCNC(=O)/C=C/c3cccnc3)[C@@H]2C1` [Example 135, (E)-N-(2-((1R,5S,6s)-3-(2-cyanophenyl)-3-azabicyclo[3.1.0]hexan-6-yl)ethyl)-3-(pyridin-3-yl)acrylamide], the IC50 lay in the range of 0.01 to 0.49 µM.

In the case of `N#Cc1cccc(N2C[C@@H]3[C@@H](CCNC(=O)/C=C/c4cccnc4)[C@@H]3C2)c1` [Example 136, (E)-N-(2-((1R,5S,6s)-3-(3-cyanophenyl)-3-azabicyclo[3.1.0]hexan-6-yl)ethyl)-3-(pyridin-3-yl)acrylamide], the IC50 is less than 0.01 µM.

For `N#Cc1ccc(N2C[C@@H]3[C@@H](CCNC(=O)/C=C/c4cccnc4)[C@@H]3C2)cc1` [Example 137, (E)-N-(2-((1R,5S,6s)-3-(4-cyanophenyl)-3-azabicyclo[3.1.0]hexan-6-yl)ethyl)-3-(pyridin-3-yl)acrylamide], the IC50 lay in the range of 0.01 to 0.49 µM.

With `O=C(/C=C/c1cccnc1)NCC[C@@H]1[C@H]2CN(c3cccc(C(F)(F)F)c3)C[C@@H]12` [Example 138, (E)-3-(pyridin-3-yl)-N-(2-((1R,5S,6s)-3-(3-(trifluoromethyl)phenyl)-3-azabicyclo[3.1.0]hexan-6-yl)ethyl)acrylamide], the IC50 fell in the range of 0.01 to 0.49 µM.

Regarding `O=C(/C=C/c1cccnc1)NCC[C@@H]1[C@H]2CN(c3ccc(C(F)(F)F)cc3)C[C@@H]12` [Example 139, (E)-3-(pyridin-3-yl)-N-(2-((1R,5S,6s)-3-(4-(trifluoromethyl)phenyl)-3-azabicyclo[3.1.0]hexan-6-yl)ethyl)acrylamide], the IC50 fell in the range of 0.01 to 0.49 µM.

Take `O=C(/C=C/c1cccnc1)NCC[C@@H]1[C@H]2CN(c3ccccc3C(F)(F)F)C[C@@H]12` [Example 140, (E)-3-(pyridin-3-yl)-N-(2-((1R,5S,6S)-3-(2-(trifluoromethyl)phenyl)-3-azabicyclo[3.1.0]hexan-6-yl)ethyl)acrylamide]: the IC50 lay in the range of 0.01 to 0.49 µM.

`O=C(/C=C/c1cccnc1)NCC[C@@H]1[C@H]2CN(c3ccc4ccncc4c3)C[C@@H]12` [Example 141, (E)-N-(2-((1R,5S,6s)-3-(isoquinolin-7-yl)-3-azabicyclo[3.1.0]hexan-6-yl)ethyl)-3-(pyridin-3-yl)acrylamide]: the IC50 was less than 0.01 µM.

Turning to `O=C(/C=C/c1cccnc1)NCC[C@@H]1[C@H]2CN(c3ccc4cnccc4c3)C[C@@H]12` [Example 142, (E)-N-(2-((1R,5S,6s)-3-(isoquinolin-6-yl)-3-azabicyclo[3.1.0]hexan-6-yl)ethyl)-3-(pyridin-3-yl)acrylamide], the IC50 was less than 0.01 µM.

On to `O=C(/C=C/c1cccnc1)NCC[C@@H]1[C@H]2CN(c3ccnc4ccccc34)C[C@@H]12` [Example 143, (E)-3-(pyridin-3-yl)-N-(2-((1R,5S,6s)-3-(quinolin-4-yl)-3-azabicyclo[3.1.0]hexan-6-yl)ethyl)acrylamide], for which the IC50 was 0.01 to 0.49 µM.

With `O=C(/C=C/c1cccnc1)NCC[C@@H]1[C@H]2CN(c3ccccc3Cl)C[C@@H]12` [Example 144, (E)-N-(2-((1R,5S,6s)-3-(2-chlorphenyl)-3-azabicyclo[3.1.0]hexan-6-yl)ethyl)-3-(pyridin-3-yl)acrylamide], the IC50 fell in the range of 0.01 to 0.49 µM.

As to `O=C(/C=C/c1cccnc1)NCC[C@@H]1[C@H]2CN(c3cccc(Cl)c3)C[C@@H]12` [Example 145, (E)-N-(2-((1R,5S,6s)-3-(3-chlorophenyl)-3-azabicyclo[3.1.0]hexan-6-yl)ethyl)-3-(pyridin-3-yl)acrylamide], the IC50 was 0.01 to 0.49 µM.

`O=C(/C=C/c1cccnc1)NCC[C@@H]1[C@H]2CN(c3ccc(Cl)cc3)C[C@@H]12` [Example 146, (E)-N-(2-((1R,5S,6s)-3-(4-chlorophenyl)-3-azabicyclo[3.1.0]hexan-6-yl)ethyl)-3-(pyridin-3-yl)acrylamide]: the IC50 was 0.01 to 0.49 µM.

With `O=C(/C=C/c1cccnc1)NCC[C@@H]1[C@H]2CN(c3ccc(Cl)c(Cl)c3)C[C@@H]12` [Example 147, (E)-N-(2-((1R,5S,6s)-3-(3,4-dichlorophenyl)-3-azabicyclo[3.1.0]hexan-6-yl)ethyl)-3-(pyridin-3-yl)acrylamide], the IC50 was less than 0.01 µM.

In the case of `O=C(/C=C/c1cccnc1)NCC[C@@H]1[C@H]2CN(c3cc(Cl)cc(Cl)c3)C[C@@H]12` [Example 148, (E)-N-(2-((1R,5S,6s)-3-(3,5-dichlorophenyl)-3-azabicyclo[3.1.0]hexan-6-yl)ethyl)-3-(pyridin-3-yl)acrylamide], the IC50 was less than 0.01 µM.

Turning to `O=C(/C=C/c1cccnc1)NCC[C@@H]1[C@H]2CN(c3cccnc3)C[C@@H]12` [Example 149, (E)-3-(pyridin-3-yl)-N-(2-((1R,5S,6s)-3-(pyridin-3-yl)-3-azabicyclo[3.1.0]hexan-6-yl)ethyl)acrylamide], the IC50 is 0.01 to 0.49 µM.

Take `O=C(/C=C/c1cccnc1)NCC[C@@H]1[C@H]2CN(c3cc(Cl)ccc3F)C[C@@H]12` [Example 150, (E)-N-(2-((1R,5S,6s)-3-(5-chloro-2-flurophenyl)-3-azabicyclo[3.1.0]hexan-6-yl)ethyl)-3-(pyridin-3-yl)acrylamide]: the IC50 fell in the range of 0.01 to 0.49 µM.

Regarding `CSc1cccc(N2C[C@@H]3[C@@H](CCNC(=O)/C=C/c4cccnc4)[C@@H]3C2)c1` [Example 151, (E)-N-(2-((1R,5S,6s)-3-(3-(methylthio)phenyl)-3-azabicyclo[3.1.0]hexan-6-yl)ethyl)-3-(pyridin-3-yl)acrylamide], the IC50 was less than 0.01 µM.

In the case of `CS(=O)(=O)c1cccc(N2C[C@@H]3[C@@H](CCNC(=O)/C=C/c4cccnc4)[C@@H]3C2)c1` [Example 152, (E)-N-(2-((1R,5S,6s)-3-(3-(methylsulfonyl)phenyl)-3-azabicyclo[3.1.0]hexan-6-yl)ethyl)-3-(pyridin-3-yl)acrylamide], the IC50 lay within 0.01 to 0.49 µM.

Regarding `O=C(/C=C/c1cccnc1)NCC[C@@H]1[C@H]2CN(c3ccc(F)c(Cl)c3)C[C@@H]12` [Example 153, (E)-N-(2-((1R,5S,6s)-3-(3-chloro-4-fluorophenyl)-3-azabicyclo[3.1.0]hexan-6-yl)ethyl)-3-(pyridin-3-yl)acrylamide], the IC50 was in the range of 0.01 to 0.49 µM.

As to `O=C(/C=C/c1cccnc1)NCC[C@@H]1[C@H]2CN(c3ccncc3)C[C@@H]12` [Example 154, (E)-3-(pyridin-3-yl)-N-(2-((1R,5S,6s)-3-(pyridin-4-yl)-3-azabicyclo[3.1.0]hexan-6-yl)ethyl)acrylamide], the IC50 is 0.01 to 0.49 µM.

In the case of `CC(C)(C)c1cccc(N2C[C@@H]3[C@@H](CCNC(=O)/C=C/c4cccnc4)[C@@H]3C2)c1` [Example 155, (E)-N-(2-((1R,5S,6s)-3-(3-(tert-butyl)phenyl)-3-azabicyclo[3.1.0]hexan-6-yl)ethyl)-3-(pyridin-3-yl)acrylamide], the IC50 lay in the range of 0.01 to 0.49 µM.

Regarding `O=C(/C=C/c1cccnc1)NCC[C@@H]1[C@H]2CN(c3ccc4c(c3)C(=O)NC4)C[C@@H]12` [Example 156, (E)-N-(2-((1R,5S,6s)-3-(3-oxoisoindolin-5-yl)-3-azabicyclo[3.1.0]hexan-6-yl)ethyl)-3-(pyridin-3-yl)acrylamide], the IC50 lay within 0.01 to 0.49 µM.

Consider `O=C(/C=C/c1cccnc1)NCC[C@@H]1[C@H]2CN(c3ccc4c(c3)CNC4=O)C[C@@H]12` [Example 157, (E)-N-(2-((1R,5S,6s)-3-(1-oxoisoindolin-5-yl)-3-azabicyclo[3.1.0]hexan-6-yl)ethyl)-3-(pyridin-3-yl)acrylamide], for which the IC50 is less than 0.01 µM.

`CC(C)(C)Oc1cccc(N2C[C@@H]3[C@@H](CCNC(=O)/C=C/c4cccnc4)[C@@H]3C2)c1` [Example 158, (E)-N-(2-((1R,5S,6s)-3-(3-(tert-butoxy)phenyl)-3-azabicyclo[3.1.0]hexan-6-yl)ethyl)-3-(pyridin-3-yl)acrylamide]: the IC50 was less than 0.01 µM.

Turning to `O=C(/C=C/c1cccnc1)NCC[C@@H]1[C@H]2CN(c3ccnc(C(F)(F)F)c3)C[C@@H]12` [Example 159, (E)-3-(pyridin-3-yl)-N-(2-((1R,5S,6s)-3-(2-(trifluoromethyl)pyridin-4-yl)-3-azabicyclo[3.1.0]hexan-6-yl)ethyl)acrylamide], the IC50 was less than 0.01 µM.

For the molecule `O=C(/C=C/c1cccnc1)NCC[C@@H]1[C@H]2CN(c3ccnc(Cl)c3)C[C@@H]12` [Example 160, (E)-N-(2-((1R,5S,6s)-3-(2-chloropyridin-4-yl)-3-azabicyclo[3.1.0]hexan-6-yl)ethyl)-3-(pyridin-3-yl)acrylamide], the IC50 was less than 0.01 µM.
